# Results as given in patent publication EP0162545A2, “Enhanced bioconversion processes” (BETZ EUROPE, INC., priority 1984, dated 1985).
# Experiments:
# Klebsiella [1] = test: Total organic carbon removal in nutrient broth shake flasks; format: cell-based; settings: for % Org. Carbon Removal / Tot. Inorg. Carbon / Tot. Org. Carbon / Total Carbon: 5 Hours
# Method: Experiments to look at the above conclusions in depth were performed. In these experiments, cultures of Klebsiella were challenged with various concentrations of BNS and the effects on C02 evolution from glucose, viability, TOC (Total Organic Carbon), TIC (Total Inorganic Carbon) production, removal, and DO (Dissolved Oxygen) removal were determined. Concentrations of BNS from 0.05 to 100 µg/mL were used. […] CO2 evolution decreased after 5 gg/mL. […] The viability dropped off after that with 99% inhibition at concentrations somewhere between 10 - 20 µg/mL. Organic carbon removal gave the most puzzling pattern. […] CO2 was produced, however, as reflected by the C02 blowoff experiments and the TIC data. The organic carbon being oxidized (removed) must have been cancelled out by an organic carbon addition caused by limited bacterial lysis. This phenomenon was investigated again. […] It appeared that 5 ppm BNS would be the maximum concentration that could be used for the desired effect, with the majority of favorable results occurring in the 0.05 - 2 ppm range.
# The experiments coordinating the measurements of C02 evolution, TOC reduction, viable count, and dissolved oxygen (DO) reduction were performed as follows: C02 evolution by Klebsiella was measured as described previously using a narrowed set of BNS concentrations. At the same time, Klebsiella cells grown overnight in nutrient broth were standardized into an inoculum of 250 Klett units. These cells were used to inoculate 19 mL quantities of fresh nutrient broth (1 mL inoculum) in baffled shake flasks. These shake flasks were placed into water bath shakers at 37°C and allowed to shake for 5 hours. Concentrations of BNS equivalent to the C02 blowoff experiment were added to the flasks at the beginning of the experiment. Controls containing no BNS were included for comparisons. Total organic carbon measurements were taken after 5 hours incubation. Viable counts were done at 1 hour, 3 hours, and 5 hours. A parallel experiment was performed using the same setup except that after BNS additions, the flasks were shaken for 30 minutes and then held stationary. DO measurements were taken at 5 hours incubation with the use of a YSI Model 54A oxygen meter.
# [2] = BNS breakdown kinetics in deionized water, spectrophotometric at 320 nm; format: physicochemical
# Method: BNS stock was composed of 10% BNS, 5% Triton X-114 and 85% carbitol acetate. BNS was diluted in deionized water to the appropriate 10X concentration desired. Breakdown kinetics were measured in a deionized H20/BNS system by spectrophotometric measurement at 320 nm and a BNS half life was determined to be 7 hours. Continuous and separate pumping of uncoupler was by a Masterflex 7552-10 peristalic pump (Cole Parmer, Chicago, IL) through silicon tubing lines into the bioreactor. Feed flow was split 90% organic feed, 10% BNS feed for total flow. New uncoupler feed was made up daily from the previously mentioned stock, since there was only 10% of the original BNS concentration left before the new daily solution of BNS feed was begun. BNS dose of 1, 2 and 5 ppm was based on the total bulk feed. Reservoir solutions were mixed constantly on a Fisher versamix magnetic stir plate at a speed of 0.4/1.0 to prevent settling out of chemical.
# Klebsiella [3] = format: cell-based
# Method: At 0.05 µg/mL level, TOC removal was equivalent to the untreated control. When BNS concentrations of 0.5 µg/mL were used, TOC removal ceased and in the second series of experiments, TOC levels increased sharply at 0.5 - 2 µg/mL concentrations of BNS. Similar results were obtained when BNS was used to treat bacteria growing in the glucose salts medium. No increases in TOC removal were seen. The TOC concentration increased rapidly at BNS concentration of 0.5 - 2 ppm only to fall back to control levels at 5 ppm. The cells then added TOC to the medium again from […] concentrations of BNS. This middle range spike in TOC (0.5-2 µg/mL BNS) was thought to be caused by excessive extra cellular polymer sloughing and limited cellular death as evidenced by the viability counts in the. 0.5 - 2 µg/mL BNS range. […] The dissolved oxygen concentration was decreased in the presence of BNS at concentrations of 0.05 - 1 µg/mL but at no concentration of BNS was the removal greater than the control level.
# This set of experiments tends to make the BNS range of useful concentrations even lower than noted before. […] DO removal was seriously affected by concentrations of BNS that were ≥ 0.5 µg/mL. In short, it would appear that BNS would have to be used at concentrations ≤ 0.5 µg/mL in order to prevent the upset of a waste treatment facility by killing off the microbial populations. […]
# Klebsiella [4] = test: Dissolved oxygen removal in nutrient broth; format: cell-based; settings: 5 hours
# Method: Experiments to look at the above conclusions in depth were performed. In these experiments, cultures of Klebsiella were challenged with various concentrations of BNS and the effects on C02 evolution from glucose, viability, TOC (Total Organic Carbon), TIC (Total Inorganic Carbon) production, removal, and DO (Dissolved Oxygen) removal were determined. Concentrations of BNS from 0.05 to 100 µg/mL were used. […] CO2 evolution decreased after 5 gg/mL. […] The viability dropped off after that with 99% inhibition at concentrations somewhere between 10 - 20 µg/mL. Organic carbon removal gave the most puzzling pattern. […] CO2 was produced, however, as reflected by the C02 blowoff experiments and the TIC data. The organic carbon being oxidized (removed) must have been cancelled out by an organic carbon addition caused by limited bacterial lysis. This phenomenon was investigated again. […]
# The experiments coordinating the measurements of C02 evolution, TOC reduction, viable count, and dissolved oxygen (DO) reduction were performed as follows: C02 evolution by Klebsiella was measured as described previously using a narrowed set of BNS concentrations. […] These cells were used to inoculate 19 mL quantities of fresh nutrient broth (1 mL inoculum) in baffled shake flasks. […]
smiles,measurement,setting,value
"O=[N+]([O-])C(Br)=Cc1ccccc1 [BNS, beta-bromo-beta-nitrostyrene]",% Org. Carbon Removal,Klebsiella [1]; BNS 0.05 µg/mL,37%
same,Tot. Inorg. Carbon,Klebsiella [1]; BNS 0.05 µg/mL,145 µg/mL
same,Tot. Org. Carbon,Klebsiella [1]; BNS 0.05 µg/mL,"2,205 µg/mL"
same,Total Carbon,Klebsiella [1]; BNS 0.05 µg/mL,"2,350 µg/mL"
same,% Org. Carbon Removal,Klebsiella [1]; BNS 0.1 µg/mL,+9%
same,Tot. Inorg. Carbon,Klebsiella [1]; BNS 0.1 µg/mL,155 µg/mL
same,Tot. Org. Carbon,Klebsiella [1]; BNS 0.1 µg/mL,"3,845 µg/mL"
same,Total Carbon,Klebsiella [1]; BNS 0.1 µg/mL,"4,000 µg/mL"
same,% Org. Carbon Removal,Klebsiella [1]; BNS 0.5 µg/mL,1%
same,Tot. Inorg. Carbon,Klebsiella [1]; BNS 0.5 µg/mL,145 µg/mL
same,Tot. Org. Carbon,Klebsiella [1]; BNS 0.5 µg/mL,"3,455 µg/mL"
same,Total Carbon,Klebsiella [1]; BNS 0.5 µg/mL,"3,600 µg/mL"
same,% Org. Carbon Removal,Klebsiella [1]; BNS 1.0 µg/mL,6%
same,Tot. Inorg. Carbon,Klebsiella [1]; BNS 1.0 µg/mL,120 µg/mL
same,Tot. Org. Carbon,Klebsiella [1]; BNS 1.0 µg/mL,"3,280 µg/mL"
same,Total Carbon,Klebsiella [1]; BNS 1.0 µg/mL,"3,400 µg/mL"
same,% Org. Carbon Removal,Klebsiella [1]; BNS 2 µg/mL,+16%
same,Tot. Inorg. Carbon,Klebsiella [1]; BNS 2 µg/mL,96 µg/mL
same,Tot. Org. Carbon,Klebsiella [1]; BNS 2 µg/mL,"4,054 µg/mL"
same,Total Carbon,Klebsiella [1]; BNS 2 µg/mL,"4,150 µg/mL"
same,% Org. Carbon Removal,Klebsiella [1]; BNS 5 µg/mL,+35%
same,Tot. Inorg. Carbon,Klebsiella [1]; BNS 5 µg/mL,63 µg/mL
same,Tot. Org. Carbon,Klebsiella [1]; BNS 5 µg/mL,"4,737 µg/mL"
same,Total Carbon,Klebsiella [1]; BNS 5 µg/mL,"4,800 µg/mL"
same,% Org. Carbon Removal,Klebsiella [1]; BNS 10 µg/mL,+11%
same,Tot. Inorg. Carbon,Klebsiella [1]; BNS 10 µg/mL,12 µg/mL
same,Tot. Org. Carbon,Klebsiella [1]; BNS 10 µg/mL,"3,888 µg/mL"
same,Total Carbon,Klebsiella [1]; BNS 10 µg/mL,"3,900 µg/mL"
same,% Org. Carbon Removal,Klebsiella [1]; BNS 20 µg/mL,+19%
same,Tot. Inorg. Carbon,Klebsiella [1]; BNS 20 µg/mL,9 µg/mL
same,Tot. Org. Carbon,Klebsiella [1]; BNS 20 µg/mL,"4,191 µg/mL"
same,Total Carbon,Klebsiella [1]; BNS 20 µg/mL,"4,200 µg/mL"
same,% Org. Carbon Removal,Klebsiella [1]; BNS 50 µg/mL,+31%
same,Tot. Inorg. Carbon,Klebsiella [1]; BNS 50 µg/mL,7 µg/mL
same,Tot. Org. Carbon,Klebsiella [1]; BNS 50 µg/mL,"4,593 µg/mL"
same,Total Carbon,Klebsiella [1]; BNS 50 µg/mL,"4,600 µg/mL"
same,% Org. Carbon Removal,Klebsiella [1]; BNS 100 µg/mL,+102%
same,Tot. Inorg. Carbon,Klebsiella [1]; BNS 100 µg/mL,7 µg/mL
same,Tot. Org. Carbon,Klebsiella [1]; BNS 100 µg/mL,"7,093 µg/mL"
same,Total Carbon,Klebsiella [1]; BNS 100 µg/mL,"7,100 µg/mL"
same,concentrations resulting in increases in TOC,"Klebsiella [1]; nutrient broth, 5 hours",≥ 2 µg/mL
same,half-life,"[2]; deionized water, deionized H20/BNS system, 320 nm",7 h
same,original BNS concentration left,"[2]; diluted feed in deionized water, before the new daily solution",10%
same,concentrations seriously affecting DO removal,Klebsiella [3],≥ 500 ng/mL
same,toxic concentration,Klebsiella [3],0.5 to 1 µg/mL
same,concentrations at which oxygen was consumed at levels approaching control values,Klebsiella [4],up to 2 ppm
